For data set [1], the system named is Leishmania donovani. The data set can be described thus: Antileishmanial activity against Leishmania donovani MHOM/ET/67/HU3 promastigotes by drug sensitivity assay. The format is functional, organism-based.
The test system of data set [2] is Leishmania donovani. The data set can be described thus: Activity ratio of compound EC50 to miltefosine EC50 for intracellular Leishmania donovani MHOM/ET/67/HU3 amastigotes infected in peritoneal macrophages of Mesocricetus auratus. The format is functional.
Data set [3] concerns Leishmania donovani. The data set can be described thus: Antileishmanial activity against intracellular Leishmania donovani MHOM/ET/67/HU3 amastigotes infected in peritoneal macrophages of Mesocricetus auratus by drug sensitivity assay. The format is functional, organism-based.
Data set [4] in a line: Therapeutic index, ratio of EC50 for human THP1 cells to EC50 for intracellular Leishmania donovani MHOM/ET/67/HU3 amastigotes infected in peritoneal macrophages of Mesocricetus auratus. The class given is cell-based, THP-1. Particulars: read-out: TI.
Data set [5] can be described thus: Therapeutic index, ratio of EC50 for human KB cells to EC50 for intracellular Leishmania donovani MHOM/ET/67/HU3 amastigotes infected in peritoneal macrophages of Mesocricetus auratus. The format is cell-based. To be noted: read-out: TI.
The subject of data set [6] is Leishmania donovani. The data set can be described thus: Antileishmanial activity against Leishmania donovani MHOM/ET/67/HU3 amastigotes infected in ip dosed BALB/c mouse model administered one week after infection for 5 consecutive days measured after 3 days of last dose by Giemsa staining. To be noted: MHOM/ET/67/HU3, ip. The format is functional.
Data set [7] relates to Leishmania donovani. The data set can be described thus: Antileishmanial activity against Leishmania donovani MHOM/ET/67/HU3 amastigotes infected in po dosed BALB/c mouse model administered one week after infection for 5 consecutive days measured after 3 days of last dose by Giemsa staining. To be noted: for ED50: MHOM/ET/67/HU3, po. The format is functional.
The test system of data set [8] is Leishmania donovani. The data set can be described thus: Antileishmanial activity against Leishmania donovani MHOM/ET/67/L82 infected in po dosed BALB/c mouse model. The format is functional. Particulars: MHOM/ET/67/L82, po.
The subject of data set [9] is Leishmania donovani. The data set can be described thus: Antileishmanial activity against Leishmania donovani MHOM/ET/67/HU3 amastigotes infected in ip dosed BALB/c mouse model administered as suspension one week after infection for 5 consecutive days measured after 3 days of last dose by Giemsa staining. The format is functional. To be noted: MHOM/ET/67/HU3, ip.
Data set [10] is described as follows: Solubility at phosphate-buffered saline of pH 7.4. The class given is physicochemical. Particulars: buffer.

Usually EC50 stands for the concentration at which the effect is half-maximal. Lower therefore signals an effect from little substance. In the data set on Leishmania donovani [1], `CCCCCCCCCCCCCCCCCC(C)OP(=O)([O-])OCC[N+](C)(C)C` (configuration not stated) had an EC50 of 3.35 µM.
In turn, `CCCCCCCCCCCCCCCCCCOP(=O)([O-])OCC[N+](C)(C)C` [OCTADECYLPHOSPHONOCHOLINE] showed an EC50 in the data set with Leishmania donovani [1] of 2.4 µM.
Turning to `CCCCCCCCCCCCCCCCCCOP(=O)([O-])OCC[N+]1(C)CCSCC1.O`, the “Ratio EC50” value in the data set on Leishmania donovani [2] was 0.23. The figures for the EC50 in the data set with Leishmania donovani [3] and in the data set with Leishmania donovani [1] were 1.22 µM and 2.37 µM, respectively.
Consider `CCCCCCCCCCCCCCCCOP(=O)([O-])OCC[N+]1(C)CCOCC1.O`, for which the “Ratio EC50” value in the data set with Leishmania donovani [2] is on record as 0.46. The compound also gave an EC50 with Leishmania donovani [3] of 2.46 µM.
For the compound `CCCCCCCCCCCCCCCCCCOCC(COP(=O)([O-])OCC[N+]1(C)CCCCC1)OC` (configuration not stated), the “Ratio EC50” value in the data set on Leishmania donovani [2] is listed as 0.32. Moreover, the results for the EC50 with Leishmania donovani [3] and with Leishmania donovani [1] were 1.68 µM and 1.79 µM, respectively.
In the data set on Leishmania donovani [1], `CCCCCCCCCCCCCCCCCCCOP(=O)([O-])OCC[N+]1(C)CCCCC1` yielded an EC50 of 1.29 µM.
A word on the ED50: it is the dose at which the effect has come halfway, by size or by number of responders. High values mean weaker potency, low ones greater potency. Take `CCCCCCCCCCCCCCCCOP(=O)([O-])OCC[N+](C)(C)C` [MILTEFOSINE]: the selectivity ratio in data set [4] was found to be 5.48; in data set [5], 0.83. Also, the results for the ED50 in the data set with Leishmania donovani [6], with Leishmania donovani [7] and with Leishmania donovani [8] were 7.72 mg/kg, 8.09 mg/kg and 10 mg/kg, respectively. Also, the EC50 stood at 2.04 µM in the data set with Leishmania donovani [3] and 5.7 µM in the data set on Leishmania donovani [1].
As to `CCCCCCCCCCCCCCCCCCOP(=O)([O-])OCC[N+]1(C)CCOCC1`, the “Ratio EC50” value with Leishmania donovani [2] turned out to be 0.18. The compound further registered an EC50 in the data set on Leishmania donovani [3] of 0.94 µM.
`CCCCCCCCC(Br)C(Br)CCCCCCCCOP(=O)([O-])OCC[N+](C)(C)C` (configuration not stated) showed an EC50 with Leishmania donovani [1] of 1.09 µM.
As to `CCCCCCCCCCCCCCCCCCOP(=O)([O-])OC1CCC[N+](C)(C)C1` (configuration not stated), in the data set on Leishmania donovani [2], the “Ratio EC50” value came out at 0.13. This compound also yielded an EC50 in the data set on Leishmania donovani [3] of 0.43 µM.
In the case of `CCCCCCCCCCCCCCCCOP(=O)([O-])OCC[N+]1(C)CCCCC1`, the selectivity ratio in data set [4] is 95.7. Further, the selectivity ratio in data set [5] was 23.4. For the same compound, in the data set with Leishmania donovani [7], the Activity result was “Dose-dependent effect” and it took a dose of 25.5 mg/kg to reach the 50% effect level (ED50). The “Ratio EC50” value in the data set on Leishmania donovani [2] is listed as 0.09. Also, the concentration giving a half-maximal response (EC50) in the data set on Leishmania donovani [3] worked out at 0.3 µM.
On to `CCCCCCCCCCCCCCCCCCOP(=O)([O-])OCCC1CC[N+](C)(Cc2ccccc2)CC1.O.O` (configuration not stated), for which the “Ratio EC50” value in the data set on Leishmania donovani [2] was 0.25. For the same compound, a half-maximal response with Leishmania donovani [3] (EC50) required 0.82 µM.
The compound `CCCCCCCCCCCCCCCCOCC(COP(=O)([O-])OCC[N+](C)(C)C)OC` (configuration not stated) displayed an EC50 in the data set with Leishmania donovani [1] of 3.58 µM.
As to `CCCCCCCCCCCCCCCCCCOP(=O)([O-])OC1CC[N+](C)(Cc2ccccc2)CC1.O` (configuration not stated), the “Ratio EC50” value in the data set with Leishmania donovani [2] is reported as 0.12. In the data set with Leishmania donovani [3], this compound showed an EC50 of 0.4 µM.
Regarding `CCCCCCCCCCCCCCCCOP(=O)([O-])OC1CC[N+](C)(Cc2ccccc2)CC1` (configuration not stated), the values for the selectivity ratio in [4] and in data set [5] were above 220 and 179, respectively. Also, in the data set on Leishmania donovani [9], the ED50 was 33 mg/kg. In data set [10], the solubility result was “Soluble”. Also, the “Ratio EC50” value with Leishmania donovani [2] turned out to be 0.12. In the data set on Leishmania donovani [3], the EC50 came out at 0.41 µM.
As for `CCCCCCCCCCCCCCCCCCOP(=O)([O-])OCCC1CC[N+](Cc2ccccc2)(Cc2ccccc2)CC1.O`, in the data set on Leishmania donovani [2], the “Ratio EC50” value was determined as 0.23. For the same compound, in the data set on Leishmania donovani [3], the EC50 turned out to be 0.76 µM.
With `CCCCCCCCCCCCCCCCCCOP(=O)([O-])OCC[N+](C)(C)C1CCCCC1.O`, the “Ratio EC50” value in the data set with Leishmania donovani [2] came out at 0.22. For the same compound, the EC50 in the data set on Leishmania donovani [3] worked out at 1.19 µM.
Consider `CCCCCCCCCCCCCCCCOP(=O)([O-])OCC[N+]12CCC(CC1)CC2.O`, for which, in the data set with Leishmania donovani [2], the “Ratio EC50” value is given as 0.16. Also, the response in the data set with Leishmania donovani [3] was half-maximal at 0.55 µM (EC50).
Turning to `CCCCCCCCCCCCCCCCCCOP(=O)([O-])OCC[N+](C)(C)CC`, a half-maximal effect with Leishmania donovani [1] (EC50) was put at 2.04 µM.
In the data set with Leishmania donovani [1], `CCCCCCCCCCCCCCCCCCOP(=O)([O-])OC1CC[N+]2(CCCC2)CC1` had an EC50 of 3.06 µM.
`CCCCCCCCCCCCCCCCOCCOCCOCCOCCOCCOCCOCCOCCOCCOCCOP(=O)([O-])OC1CC[N+](C)(C)CC1`: the “Ratio EC50” value in the data set on Leishmania donovani [2] is on record as 0.4. Further, the EC50 with Leishmania donovani [3] amounted to 1.32 µM.
On to `CCCCCCCCCCCCCCCCOP(=O)([O-])OC1CC[N+](C)(CCc2ccccc2)CC1.O.O` (configuration not stated), for which the “Ratio EC50” value in the data set on Leishmania donovani [2] was 0.49. The same compound came in with an EC50 in the data set with Leishmania donovani [3] of 0.99 µM.
For `CCCCCCCCCCCCCCCCCCOP(=O)([O-])OCC[N+]1(C)CCC(O)CC1` (configuration not stated), the “Ratio EC50” value with Leishmania donovani [2] is 0.41. For the same compound, the EC50 with Leishmania donovani [3] came out at 1.37 µM; with Leishmania donovani [1], 3.06 µM.
Take `CCCCCCCCCCCCCCCCCCOP(=O)([O-])OC1CC[N+](CC)(CC)CC1.O.O`: the figures for the selectivity ratio in data set [4] and in data set [5] were 11.7 and 6.89, respectively. In the data set on Leishmania donovani [7], the ED50 was 35.3 mg/kg. In the data set with Leishmania donovani [2], the “Ratio EC50” value is on record as 0.12. In addition, the EC50 with Leishmania donovani [3] stood at 0.4 µM.
Take `CCCCCCCCCCCCCCCCCCOP(=O)([O-])OCC[N+](C)(C)C1CC1.O`: in the data set on Leishmania donovani [2], the “Ratio EC50” value came out at 0.5. Further, the EC50 worked out at 2.64 µM in the data set with Leishmania donovani [3] and 1.52 µM with Leishmania donovani [1].
Turning to `CCCCCCCCCCCCCCCCCCOP(=O)([O-])OC1CC2CCC(C1)[N+]2(C)C` (configuration not stated), the “Ratio EC50” value with Leishmania donovani [2] worked out at 0.13. For the same compound, the EC50 with Leishmania donovani [3] worked out at 0.71 µM.
As to `CCCCCCCCCCCCCCCCCCOCC(COP(=O)([O-])OC1CC2CCC(C1)[N+]2(C)C)OC` (configuration not stated), a half-maximal effect with Leishmania donovani [1] (EC50) was put at 1.69 µM.
For the compound `CCCCCCCCCCCCCCCCCCOCCOCCOP(=O)([O-])OCC[N+]1(C)CCCC1`, in the data set with Leishmania donovani [1], the EC50 came to 3.36 µM.
In the data set on Leishmania donovani [8], `CCCCCCCCCCCCCCCCCCOP(=O)([O-])OC1CC[N+](C)(C)CC1` [PERIFOSINE] displayed an ED50 of 25.2 mg/kg. The “Ratio EC50” value in the data set with Leishmania donovani [2] worked out at 0.63. Besides, the EC50 in the data set on Leishmania donovani [1] is 3.02 µM.
Regarding `CCCCCCCCCCCCCCCCOP(=O)([O-])OCC[N+](C)(C)c1ccccc1.O`, in the data set on Leishmania donovani [2], the “Ratio EC50” value turned out to be 0.11. In the data set on Leishmania donovani [3], this compound gave an EC50 of 0.58 µM.
As to `CCCCCCCCCCCCCCCCCCSCC(COC)COP(=O)([O-])OCC[N+]1(C)CCCCC1.O` (configuration not stated), the “Ratio EC50” value in the data set with Leishmania donovani [2] is on record as 0.07. Further, the EC50 in the data set with Leishmania donovani [3] stood at 0.25 µM; with Leishmania donovani [1] it was 3.61 µM.
Turning to `CCCCCCCCCCCCCCCCCCOP(=O)([O-])OC1CC[N+](C)(CC)CC1` (configuration not stated), the EC50 in the data set on Leishmania donovani [1] is 2.71 µM.
In the data set with Leishmania donovani [1], `CCCCCCCCCCCCCCCCOCCCOP(=O)([O-])OCC[N+](C)(C)C` displayed an EC50 of 1.55 µM.

The record behind these values is ChEMBL document CHEMBL1151435, “Antileishmanial structure-activity relationships of synthetic phospholipids: in vitro and in vivo activities of selected derivatives” (Antimicrob Agents Chemother, 2007).
